Measured values: patent US10336762B2 (priority 2017, dated 2019)
Like-named read-outs stand apart in the source and are kept apart here.

Legend:
[1] = tested on: TNFα; assay: cells; assay type: cell-based, human; conditions: Homo sapiens, Monocyte, LPS-stimulated human monocytes, read-out: EC50 TNF
[2] = molecular target: IRAK4 enzyme (Homo sapiens (Human), UniProt Q9NWZ3); assay: biochemical; assay type: biochemical; conditions: IRAK4 enzyme, 500 μM ATP
Chain of IRAK4 enzyme (Q9NWZ3 whole entry): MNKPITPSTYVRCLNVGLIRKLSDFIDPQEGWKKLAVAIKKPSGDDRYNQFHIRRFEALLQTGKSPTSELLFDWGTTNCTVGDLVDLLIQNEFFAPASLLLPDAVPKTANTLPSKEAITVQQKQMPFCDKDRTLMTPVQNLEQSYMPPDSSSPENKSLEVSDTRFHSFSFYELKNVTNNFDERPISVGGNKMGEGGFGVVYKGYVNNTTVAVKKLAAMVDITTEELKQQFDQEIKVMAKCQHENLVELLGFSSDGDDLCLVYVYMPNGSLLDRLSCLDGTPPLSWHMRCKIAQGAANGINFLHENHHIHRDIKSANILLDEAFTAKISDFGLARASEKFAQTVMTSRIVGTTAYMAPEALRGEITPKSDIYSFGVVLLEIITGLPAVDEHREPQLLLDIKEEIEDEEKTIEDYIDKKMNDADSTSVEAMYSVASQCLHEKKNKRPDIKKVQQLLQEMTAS

Row | Compound | EC50 ([1]; TNFα content) | IC50 ([2]; TR-FRET) | EC50 ([1]; TNFα by TR-FRET) | IC50 ([2]; TR-FRET (HTRF))
1 | CC(C)(O)[C@H](F)CNC(=O)c1cnc(-c2ccc3cc(C#N)cnn23)cc1Nc1cnn(C2CCNCC2)c1 [Example 236, (R)-6-(3-cyanopyrrolo[1,2-b]pyridazin-7-yl)-N-(2-fluoro-3-hydroxy-3-methylbutyl)-4-((1-(piperidin-4-yl)-1H-pyrazol-4-yl)amino) nicotinamide] | 0.379 µM | 0.001 µM | – | –
2 | COC(=O)N[C@H]1CC[C@H](Nc2cc(-c3ccc4cc(C#N)cnn34)ncc2C(=O)NC[C@@H](F)C(C)(C)OC(C)=O)CC1 [Example 293, (R)-4-(6-(3-cyanopyrrolo[1,2-b]pyridazin-7-yl)-4-(((1r,4R)-4-((methoxycarbonyl)amino)cyclohexyl)amino)nicotinamido)-3-fluoro-2-methylbutan-2-yl acetate] | 0.049 µM | 0.001 µM | – | –
3 | N#Cc1cnn2c(-c3cc(NC45CCC(O)(CC4)CC5)c(C(=O)NCc4ncccn4)cn3)ccc2c1 [Example 933, 6-(3-cyanopyrrolo[1,2-b]pyridazin-7-yl)-4-((4-hydroxybicyclo[2.2.2]octan-1-yl)amino)-N-(pyrimidin-2-ylmethyl)nicotinamide] | – | 0.004 µM | 0.269 µM | –
4 | CC(=O)Nc1cncc(NC(=O)c2cnc(-c3ccc4cc(C#N)cnn34)cc2NC(C)C)c1 [Example 491, N-(5-acetamidopyridin-3-yl)-6-(3-cyanopyrrolo[1,2-b]pyridazin-7-yl)-4-(isopropylamino) nicotinamide] | 0.219 µM | – | – | 0.019 µM
5 | CC(C)(O)[C@H](F)CNC(=O)c1cnc(-c2ccc3cc(C#N)cnn23)cc1N[C@H]1CC[C@@H](OC(=O)NC2CC2)CC1 [Example 166, (1S,4s)-4-((2-(3-cyano-pyrrolo[1,2-b]pyridazin-7-yl)-5-(((R)-2-fluoro-3-hydroxy-3-methylbutyl)carbamoyl)pyridin-4-yl)amino)cyclohexyl cyclopropylcarbamate] | > 10 µM | 0.741 µM | – | –
6 | CN1CCOc2cc(Nc3cc(-c4ccc5cc(C#N)cnn45)ncc3C(=O)N[C@H]3CC[C@H](NC(=O)C4CC4)CC3)ccc21 [Example 859, 6-(3-cyanopyrrolo[1,2-b]pyridazin-7-yl)-N-((1r,4r)-4-(cyclopropanecarboxamido)cyclohexyl)-4-((4-methyl-3,4-dihydro-2H-benzo[b][1,4]oxazin-7-yl)amino)nicotinamide] | – | 0.003 µM | 0.089 µM | –
7 | CC(C)Nc1cc(-c2ccc3cc(C#N)cnn23)ncc1C(=O)NC1CS(=O)(=O)C1 [Example 71, 6-(3-cyanopyrrolo[1,2-b]pyridazin-7-yl)-N-(1,1-dioxidothietan-3-yl)-4-(isopropylamino) nicotinamide] | 0.298 µM | 0.009 µM | – | –
8 | N#Cc1cnn2c(-c3cc(NC45CCC(O)(CC4)CC5)c(C(=O)NCC(F)(F)C(=O)N4CC(F)(F)C4)cn3)ccc2c1 [Example 961, 6-(3-cyanopyrrolo[1,2-b]pyridazin-7-yl)-N-(3-(3,3-difluoroazetidin-1-yl)-2,2-difluoro-3-oxopropyl)-4-((4-hydroxybicyclo[2.2.2]octan-1-yl)amino)nicotinamide] | – | 0.002 µM | 0.382 µM | –
9 | CC(=O)N1CCC[C@H](Nc2cc(-c3ccc4cc(C#N)cnn34)ncc2C(=O)NC[C@@H](F)C(C)(C)O)C1 [Example 256, 4-(((S)-1-acetylpiperidin-3-yl)amino)-6-(3-cyano-pyrrolo[1,2-b]pyridazin-7-yl)-N-((R)-2-fluoro-3-hydroxy-3-methylbutyl)nicotinamide] | 0.389 µM | 0.002 µM | – | –
10 | COC12CCC(Nc3cc(-c4ccc5cc(C#N)cnn45)ncc3C(=O)NC[C@@H](F)C(C)(C)O)(CC1)CC2 [Example 414, 6-(3-cyanopyrrolo[1,2-b]pyridazin-7-yl)-N-((R)-2-fluoro-3-hydroxy-3-methylbutyl)-4-((4-methoxybicyclo[2.2.2]octan-1-yl)amino)nicotinamide] | 0.178 µM | – | – | 0.012 µM
